Converted amounts (≈) assume the structure as drawn. Where two headings read alike, the source gives them in different places.
Tests used:
Helicobacter pylori [1] = assay: MIC50/MIC90 versus Helicobacter pylori by agar dilution technique at neutral pH; format: cell-based; details: for activity compared with the twelve agents tested: Table 1
Protocol: (§1) The in vitro activities of a range of antimicrobial compounds versus Helicobacter pylori were determined by methods based on those of McNulty et al (Antimicrobial Agents and Chemotherapy, 28, 837-838, 1985). The Minimum Inhibitory concentrations for 50% and 90% of the strains used (MIC50 and MIC90), versus each antimicrobial were determined using an agar dilution technique.
(§2) The MIC of an antimicrobial agent was defined as that concentration (in mg per liter of agar) at which less than 1 in 10^5 organisms produced visible colonies.
(§3) Helicobacter pylori strains were isolated from gastric antrum biopsy specimens taken at routine endoscopy during investigation of upper gastrointestinal symptoms. They were identified as Helicobacter pylori by their colonial morphology, gram stain appearance and positive rapid urease test. The organisms were stored in liquid nitrogen before use and subcultured for testing by 48 hour incubation, at 37° C. under 10% carbon dioxide in Tryptone Soya Broth (TSB, OXOID, UK) plus 5% horse serum (Tissue Culture Services, UK).
The first test procedure determined the effectiveness of a range of antimicrobial substances versus 16 to 18 strains of Helicobacter pylori at neutral pH. Freshly prepared Isosensitest Agar of pH 7.2 (Oxoid, UK) supplemented with 10% saponinlysed horse blood was used to prepare a dilution series of each antimicrobial from which agar plates were produced. A multipoint inoculator (Denley-Tech, UK) was used to deliver 1 µl of undiluted test culture to the surface of each plate in the dilution series to give approximately 10^6 cfu/spot. The plates were incubated for three days at 37° C. in a microaerobic atmosphere of 6% oxygen and 10% carbon dioxide.

Helicobacter pylori [2] = assay: Effect of pH (5 to 8) on activity (MIC90) against Helicobacter pylori, agar dilution; format: cell-based; details: for MIC / MIC90: Helicobacter pylori; for activity compared among the three agents (in words) / effect of pH on activity (in words): pH range 5 to 8
Protocol: as §1, §2, §3
The three selected agents were triclosan, clioquinol (5-chloro-7-iodo-8-hydroxy-quinolone) and cetalkonium chloride.
In the test procedure, Sorensens phosphate buffer (0.1M) was used to prepare the range of pH values 5, 5.5, 6, 6.5, 7, 7.5 and 8. Oxoid Columbia Agar Base (CM331) was added and the media autoclaved. After cooling to 50° C., 7% Lysed Horse Blood (Tissue Culture Services, UK) was added and media at each pH was used to prepare a range of concentrations of the three selected test antimicrobial agents. To ensure pH stability, a surface pH electrode was used to monitor control plates before, during and at the end of the three day microaerobic incubation.
The MIC90 was determined for each at each pH as described in the previous test procedure.

Helicobacter pylori [3] = details: cited from earlier work
[4] = system: Helicobacter pylori infection; details: by twelve months post therapy; cited from earlier work
[5] = Helicobacter pylori, 72 h, eighteen isolates, neutral pH (agar pH 7.2), read-out: MIC50
[6] = Helicobacter pylori, eighteen isolates, neutral pH (agar pH 7.2), read-out: MIC Range
[7] = pH 5.0, sixteen isolates (triclosan, clioquinol) or eighteen (cetalkonium chloride), read-out: MIC90
[8] = pH 5.0, sixteen isolates (triclosan, clioquinol) or eighteen (cetalkonium chloride), read-out: MIC Range
[9] = pH 5.5, sixteen isolates (triclosan, clioquinol) or eighteen (cetalkonium chloride), read-out: MIC90
[10] = pH 5.5, sixteen isolates (triclosan, clioquinol) or eighteen (cetalkonium chloride), read-out: MIC Range
[11] = pH 6.0, sixteen isolates (triclosan, clioquinol) or eighteen (cetalkonium chloride), read-out: MIC90
[12] = pH 6.0, sixteen isolates (triclosan, clioquinol) or eighteen (cetalkonium chloride), read-out: MIC Range
[13] = pH 6.5, sixteen isolates (triclosan, clioquinol) or eighteen (cetalkonium chloride), read-out: MIC90
[14] = pH 7.0, sixteen isolates (triclosan, clioquinol) or eighteen (cetalkonium chloride), read-out: MIC90
[15] = pH 7.0, sixteen isolates (triclosan, clioquinol) or eighteen (cetalkonium chloride), read-out: MIC Range
[16] = pH 7.5, sixteen isolates (triclosan, clioquinol) or eighteen (cetalkonium chloride), read-out: MIC90
[17] = pH 7.5, sixteen isolates (triclosan, clioquinol) or eighteen (cetalkonium chloride), read-out: MIC Range
[18] = pH 8.0, sixteen isolates (triclosan, clioquinol) or eighteen (cetalkonium chloride), read-out: MIC90
[19] = Helicobacter pylori, pH 7.2, read-out: MIC Range
[20] = Helicobacter pylori, eighteen isolates, neutral pH (agar pH 7.2), read-out: MIC90
[21] = eighteen isolates, neutral pH (agar pH 7.2)

Compound: CCCCCCc1ccc(O)cc1O [4-Hexylresorcinol]
- MIC50 (Helicobacter pylori [1]; [5]): 32 µg/mL (≈ 165 µM)
- MIC90 (Helicobacter pylori [1]; Helicobacter pylori, pH 7.2): 32 µg/mL (≈ 165 µM)
- MIC (Helicobacter pylori [1]; [6]): 16 to 32 µg/mL (≈ 82.4 to 165 µM)

Compound: CCCCCCCCCCCCCCCC[N+](C)(C)Cc1ccccc1 [Cetalkonium Cl]
- MIC (Helicobacter pylori [2]; pH 8, read-out: MIC Range): 1 to 8 µg/mL
- MIC90 (Helicobacter pylori [2]; [7]): 1 µg/mL
- MIC (Helicobacter pylori [2]; [8]): 0.5 to 2 µg/mL
- MIC90 (Helicobacter pylori [2]; [9]): 2 µg/mL
- MIC (Helicobacter pylori [2]; [10]): 0.5 to 2 µg/mL
- MIC90 (Helicobacter pylori [2]; [11]): 2 µg/mL
- MIC (Helicobacter pylori [2]; [12]): 1 to 4 µg/mL
- MIC90 (Helicobacter pylori [2]; [13]): 4 µg/mL
- MIC (Helicobacter pylori [2]; pH 6.5, sixteen isolates (triclosan, clioquinol) or eighteen (cetalkonium chloride), read-out: MIC Range): 2 to 4 µg/mL
- MIC90 (Helicobacter pylori [2]; [14]): 4 µg/mL
- MIC (Helicobacter pylori [2]; [15]): 2 to 4 µg/mL
- MIC90 (Helicobacter pylori [2]; [16]): 4 µg/mL
- MIC (Helicobacter pylori [2]; [17]): 1 to 4 µg/mL
- MIC90 (Helicobacter pylori [2]; [18]): 2 µg/mL
- activity compared among the three agents (in words) (Helicobacter pylori [2]): demonstrated similar MIC90 activity profiles across the pH range
- effect of pH on activity (in words) (Helicobacter pylori [2]): largely unaffected by pH over the range 5 to 8
- MIC50 (Helicobacter pylori [1]; [5]): 2 µg/mL
- MIC (Helicobacter pylori [1]; [19]): 2 to 4 µg/mL
- MIC90 (Helicobacter pylori [1]; [20]): 4 µg/mL

Compound: Oc1c(I)cc(Cl)c2cccnc12 [Clioquinol, 5-chloro-7-iodo-8-hydroxy-quinolone]
- MIC (Helicobacter pylori [2]; pH 6.5, read-out: MIC Range): 0.5 to 16 µg/mL (≈ 1.64 to 52.4 µM)
- MIC (Helicobacter pylori [2]; pH 8, read-out: MIC Range): 0.5 to 2 µg/mL (≈ 1.64 to 6.55 µM)
- MIC90 (Helicobacter pylori [2]; [7]): 2 µg/mL (≈ 6.55 µM)
- MIC (Helicobacter pylori [2]; [8]): 0.5 to 4 µg/mL (≈ 1.64 to 13.1 µM)
- MIC90 (Helicobacter pylori [2]; [9]): 8 µg/mL (≈ 26.2 µM)
- MIC (Helicobacter pylori [2]; [10]): 2 to 8 µg/mL (≈ 6.55 to 26.2 µM)
- MIC90 (Helicobacter pylori [2]; [11]): 8 µg/mL (≈ 26.2 µM)
- MIC (Helicobacter pylori [2]; [12]): 2 to 8 µg/mL (≈ 6.55 to 26.2 µM)
- MIC90 (Helicobacter pylori [2]; [13]): 8 µg/mL (≈ 26.2 µM)
- MIC90 (Helicobacter pylori [2]; [14]): 2 µg/mL (≈ 6.55 µM)
- MIC (Helicobacter pylori [2]; [15]): 0.5 to 4 µg/mL (≈ 1.64 to 13.1 µM)
- MIC90 (Helicobacter pylori [2]; [16]): 2 µg/mL (≈ 6.55 µM)
- MIC (Helicobacter pylori [2]; [17]): 0.5 to 4 µg/mL (≈ 1.64 to 13.1 µM)
- MIC90 (Helicobacter pylori [2]; [18]): 1 µg/mL (≈ 3.27 µM)
- MIC50 (Helicobacter pylori [1]; [5]): 16 µg/mL (≈ 52.4 µM)
- MIC (Helicobacter pylori [1]; [19]): 8 to 16 µg/mL (≈ 26.2 to 52.4 µM)
- MIC90 (Helicobacter pylori [1]; [20]): 16 µg/mL (≈ 52.4 µM)

Compound: Oc1ccc(Cl)cc1Cc1cc(Cl)ccc1O [Dichlorphen]
- MIC50 (Helicobacter pylori [1]; [5]): 16 µg/mL (≈ 59.5 µM)
- MIC90 (Helicobacter pylori [1]; [20]): 16 µg/mL (≈ 59.5 µM)
- MIC (Helicobacter pylori [1]; [6]): 8 to 16 µg/mL (≈ 29.7 to 59.5 µM)

Compound: COc1ccccc1O [Guaiacol]
- MIC50 (Helicobacter pylori [1]; [5]): 64 µg/mL (≈ 516 µM)
- MIC90 (Helicobacter pylori [1]; [20]): 64 µg/mL (≈ 516 µM)
- MIC (Helicobacter pylori [1]; [6]): 32 to 128 µg/mL (≈ 258 to 1030 µM)

Compound: CCCCC(CC)CN1CN(CC(CC)CCCC)CC(C)(N)C1 (stereo not drawn) [Hexetidine]
- MIC50 (Helicobacter pylori [1]; [5]): 16 µg/mL (≈ 47.1 µM)
- MIC90 (Helicobacter pylori [1]; [20]): 16 µg/mL (≈ 47.1 µM)
- MIC (Helicobacter pylori [1]; [6]): 8 to 16 µg/mL (≈ 23.6 to 47.1 µM)

Compound: N=C(NCCCCCCNC(=N)NC(=N)Nc1ccc(Cl)cc1)NC(=N)Nc1ccc(Cl)cc1 [Hibitane]
- MIC50 (Helicobacter pylori [1]; [5]): 32 µg/mL (≈ 63.3 µM)
- MIC90 (Helicobacter pylori [1]; [20]): 32 µg/mL (≈ 63.3 µM)
- MIC (Helicobacter pylori [1]; [6]): 16 to 32 µg/mL (≈ 31.7 to 63.3 µM)

Compound: Cc1cc(O)cc(C)c1Cl [PCMX]
- MIC50 (Helicobacter pylori [1]; [5]): 32 µg/mL (≈ 204 µM)
- MIC90 (Helicobacter pylori [1]; [20]): 64 µg/mL (≈ 409 µM)
- MIC (Helicobacter pylori [1]; [6]): 8 to 64 µg/mL (≈ 51.1 to 409 µM)

Compound: CCS(=O)(=O)CCn1c([N+](=O)[O-])cnc1C [Tinidazole]
- MIC50 (Helicobacter pylori [1]; [5]): 0.5 µg/mL (≈ 2.02 µM)
- MIC (Helicobacter pylori [1]; Helicobacter pylori, 72 h, fifteen of eighteen isolates, neutral pH, read-out: MIC of sensitive isolates): < 2 µg/mL
- MIC (Helicobacter pylori [1]; Helicobacter pylori, 72 h, three of eighteen strains, neutral pH, read-out: MIC of strains demonstrating evidence of resistance): 16 µg/mL
- MIC90 (Helicobacter pylori [1]; [20]): 16 µg/mL (≈ 64.7 µM)
- MIC (Helicobacter pylori [1]; [6]): 0.25 to 16 µg/mL (≈ 1.01 to 64.7 µM)
- distribution of MICs (Helicobacter pylori [1]; eighteen isolates, neutral pH): bimodal distribution of MICs
- activity compared with the twelve agents tested (Helicobacter pylori [1]; neutral pH): demonstrated the greatest activity of the twelve antimicrobial agents tested

Compound: Oc1cc(Cl)ccc1Oc1ccc(Cl)cc1Cl [Triclosan, 2-hydroxy-4,2',4'-trichloro-diphenyl ether]
- MIC90 (Helicobacter pylori [2]; pH 5): 0.25 µg/mL (≈ 0.863 µM)
- MIC (Helicobacter pylori [2]; pH 5, read-out: MIC Range): 0.06 to 0.25 µg/mL (≈ 0.207 to 0.863 µM)
- MIC90 (Helicobacter pylori [2]; pH 5.5): 1 µg/mL (≈ 3.45 µM)
- MIC (Helicobacter pylori [2]; pH 5.5, read-out: MIC Range): 0.06 to 1 µg/mL (≈ 0.207 to 3.45 µM)
- MIC90 (Helicobacter pylori [2]; pH 6): 1 µg/mL (≈ 3.45 µM)
- MIC (Helicobacter pylori [2]; pH 6, read-out: MIC Range): 0.12 to 2 µg/mL (≈ 0.414 to 6.91 µM)
- MIC90 (Helicobacter pylori [2]; pH 6.5): 2 µg/mL (≈ 6.91 µM)
- MIC (Helicobacter pylori [2]; pH 6.5, read-out: MIC Range): 0.12 to 4 µg/mL (≈ 0.414 to 13.8 µM)
- MIC90 (Helicobacter pylori [2]; pH 7): 2 µg/mL (≈ 6.91 µM)
- MIC (Helicobacter pylori [2]; pH 7, read-out: MIC Range): 0.06 to 4 µg/mL (≈ 0.207 to 13.8 µM)
- MIC90 (Helicobacter pylori [2]; pH 7.5): 2 µg/mL (≈ 6.91 µM)
- MIC (Helicobacter pylori [2]; pH 7.5, read-out: MIC Range): 0.06 to 4 µg/mL (≈ 0.207 to 13.8 µM)
- MIC90 (Helicobacter pylori [2]; pH 8): 2 µg/mL (≈ 6.91 µM)
- MIC (Helicobacter pylori [2]; pH 8, read-out: MIC Range): 0.06 to 2 µg/mL (≈ 0.207 to 6.91 µM)
- activity compared among the three agents (in words) (Helicobacter pylori [2]): demonstrated the greatest activity
- effect of pH on activity (in words) (Helicobacter pylori [2]): low at pH 5.0 and unaffected in the range pH 5.5 to 8.0
- MIC50 (Helicobacter pylori [1]; Helicobacter pylori, 72 h, pH 7.2): 1 µg/mL (≈ 3.45 µM)
- MIC90 (Helicobacter pylori [1]; Helicobacter pylori, pH 7.2): 8 µg/mL (≈ 27.6 µM)
- MIC (Helicobacter pylori [1]; [19]): 0.25 to 16 µg/mL (≈ 0.863 to 55.3 µM)
- activity compared with the twelve agents tested (Helicobacter pylori [1]; neutral pH): demonstrated the greatest activity of the twelve antimicrobial agents tested

Compound: O=C([O-])CC(O)(CC(=O)[O-])C(=O)[O-].O=C([O-])CC(O)(CC(=O)[O-])C(=O)[O-].[Bi+3].[K+].[K+].[K+] [bismuth subcitrate]
- reported MIC90 (Helicobacter pylori [3]; neutral pH): 16 µg/mL

Compound: Cc1ncc([N+](=O)[O-])n1CCO [metronidazole]
- distribution of MICs (previously reported) (Helicobacter pylori [3]): bimodal distribution

Compound: Halquinol
- MIC50 (Helicobacter pylori [1]; [21]): 16 µg/mL
- MIC90 (Helicobacter pylori [1]; [21]): 16 µg/mL
- MIC Range (Helicobacter pylori [1]; [21]): 16 µg/mL

Compound: bismuth
- recurrence of the infection [4]: ~100%

— patent US5286492A, “Method of treatment of Heliobacter pylori infections with triclosan” (Reckitt & Colman Products Limited, priority 1990, dated 1994)
